Consider six compounds from US20180184644A1, “CELL STABILIZATION” (Biomatrica, Inc., priority 2013, published 2018).

SMILES strings stand for the structures. “Also recorded” adds a separate entry of the source.

In data set [1] the test system is human neonatal fibroblasts. The data set can be described thus: Cell viability by ATP content of substantially dry stored human neonatal fibroblasts. As to conditions: for % CELL VIABILITY 24 hr / % CELL VIABILITY 48 hr / % CELL VIABILITY 120 hr: inhibitor in predehydration and rehydration formulation; for % CELL VIABILITY 24 hr: MCS dehydration formulation 41, dry stored 24 hr at ambient temperature; for % CELL VIABILITY 48 hr: MCS dehydration formulation 41, dry stored 48 hr at ambient temperature; for % CELL VIABILITY 120 hr: MCS dehydration formulation 41, dry stored 120 hr at ambient temperature. Type of data set: cell-based. Also on record: % CELL VIABILITY 24 hr / % CELL VIABILITY 48 hr / % CELL VIABILITY 120 hr: concentration or dose not given beside the values. From the text: ATP content may be determined using a Cell Titer-Glo Luminescent Cell viability Assay (Promega) in accordance with the manufacturer's instructions. The addition of the Cell Titer-Glo Luminescent reagent into the cells generates a luminescent signal proportional to the amount of intracellular ATP. The amount of ATP is directly proportional to the number of cells present in culture, and it is then a homogeneous method of determining the number of viable (metabolically active) cells in the rehydrated cell preparation.
Briefly, human neonatal fibroblasts were suspended in Cascade Media 106 and seeded as 100 ul cultures at a densities of 100-5000 cells per test in 96 well plates and incubated in an environment of ambient atmosphere while maintaining an elevated CO2 level (5%-10%) and temperature of 37 C with relative humidity of 85-95%. The culture is adjusted to specific composition of predehydration formulations and media specified concentration of each apoptosis inhibitor. The cells were incubated for a period of at least one hour but not more than 3 hours hr at 37° C. The predehydration formulation was thoroughly removed and 10-15 ul of MCS dehydration formulation 41 (Table 1) was added to each well. The cells were substantially air dried at 37 C, 5% CO2, 20% relative humidity over a period of 90 minutes, stored at ambient temperature for a period of 24, 48 or 120 hours. At the appropriate time, the substantially dry stored cells were rehydrated by treating with a rehydration formulation comprising the same concentration of apoptosis inhibitor in 100-200 μl of predehydration formulation. Cell viability was determined by measuring ATP content as described herein.

The subject of another data set is Mammalian cells. Conditions: trehalose-loaded dried cells stored for even few minutes; cited from earlier work.
The test system of another data set is HeLa cells. Kind of data set: Cell viability by Trypan Blue method of substantially dry stored HeLa cells. Type of data set: cell-based. The procedure:
Cell viability may be measured using a Trypan Blue staining procedure. […] Cell counting was performed in 9 mm KOVA glass slides 10 with Grid Chambers (Hycor) in triplicate under a Leitz Fluovert microscope. The percentage of cell survival is reported relative to untreated control cells. Briefly, HeLa cells were substantially dry stored using predetermined predehydration formulations (SC1, salubrinal and SC3, MLS-0315763) and a subset of the dehydration formulations set forth in Table 1 for a period of seven hours and then rehydrated using the rehydration formulations listed below (RC1, salubrinal and RC3, MLS-0315763). Cell viability was assessed seven days after rehydration using the Trypan Blue method. The results are shown in Table 3 and FIG. 3A and FIG. 3B.

Consider `C[S+]([O-])CCCCN=C=S` [L-sulphurophane], for which, in data set [1], the “% CELL VIABILITY 24 hr” value worked out at 98.8%, the “% CELL VIABILITY 48 hr” value was 65.3% and the “% CELL VIABILITY 120 hr” value worked out at 50.9%.

On to `O=c1cc(N2CCOCC2)oc2c(-c3ccccc3)cccc12` [LY294002, 2-(4-morpholinyl)-8-phenyl-4H-1-benzopyran-4-one], for which, in data set [1], the “% CELL VIABILITY 24 hr” value came to 83.8%, the “% CELL VIABILITY 48 hr” value was found to be 85.9% and the “% CELL VIABILITY 120 hr” value was 98.7%.

As for `O=C(NOC[C@H](O)CO)c1ccc(F)c(F)c1Nc1ccc(I)cc1F` [PD032591, N-[(2R)-2,3-dihydroxypropoxy]-3,4-difluoro-2-[(2-fluoro-4-iodophenyl)amino]-benzamide], in data set [1], the “% CELL VIABILITY 24 hr” value worked out at 100.0%, the “% CELL VIABILITY 48 hr” value is on record as 85.1% and the “% CELL VIABILITY 120 hr” value amounted to 95.7%.

Take `CO[C@H]1C[C@@H]2CC[C@@H](C)[C@@](O)(O2)C(=O)C(=O)N2CCCC[C@H]2C(=O)O[C@H]([C@H](C)C[C@@H]2CC[C@@H](O)[C@H](OC)C2)CC(=O)[C@H](C)/C=C(\C)[C@@H](O)[C@@H](OC)C(=O)[C@H](C)C[C@H](C)/C=C/C=C/C=C/1C` [Rapamycin]: in data set [1], the “% CELL VIABILITY 24 hr” value turned out to be 88.4%, the “% CELL VIABILITY 48 hr” value is listed as 73.2% and the “% CELL VIABILITY 120 hr” value was 90.0%.

With `O=C(/C=C/c1ccccc1)NC(NC(=S)Nc1cccc2cccnc12)C(Cl)(Cl)Cl` (stereo not shown) [Salubrinal], in data set [1], the “% CELL VIABILITY 24 hr” value was determined as 100.0%, the “% CELL VIABILITY 48 hr” value turned out to be 72.9% and the “% CELL VIABILITY 120 hr” value is listed as 109.5%.

As for `OC[C@H]1O[C@H](O[C@H]2O[C@H](CO)[C@@H](O)[C@H](O)[C@H]2O)[C@H](O)[C@@H](O)[C@@H]1O` [Trehalose], the “cell survival after dry storage (in words)” value with Mammalian cells is recorded as “complete cell death”. In addition, in the data set on HeLa cells (HeLa cells, 7 hours dry storage, 7 days after rehydration), the “surviving / viable cells (in words)” value was “did not yield in any viable cells; also recorded: did not yield any surviving cells”. Also, the “% HeLa Cell Viability” value in the data set with HeLa cells (dry stored seven hours, Trypan Blue seven days after rehydration) was determined as 0%. The “viable cells (in words)” value in data set [1] (by 24 hr of dry storage) is “little to no viable cells”. Further, in data set [1], the “% CELL VIABILITY 24 hr” value is 7.5%, the “% CELL VIABILITY 48 hr” value is on record as 0.0% and the “% CELL VIABILITY 120 hr” value stood at 0.0%.
